Experimental data: publication PMC11022890 (Drug Metabolism and Disposition, 2021)

Assays:
[1] = target: T1, UGT1A9 in human kidney microsomes (Homo sapiens, UniProt O60656); test: Inhibition of furosemide glucuronidation; details: HKM
T1 sequence (O60656 26-530): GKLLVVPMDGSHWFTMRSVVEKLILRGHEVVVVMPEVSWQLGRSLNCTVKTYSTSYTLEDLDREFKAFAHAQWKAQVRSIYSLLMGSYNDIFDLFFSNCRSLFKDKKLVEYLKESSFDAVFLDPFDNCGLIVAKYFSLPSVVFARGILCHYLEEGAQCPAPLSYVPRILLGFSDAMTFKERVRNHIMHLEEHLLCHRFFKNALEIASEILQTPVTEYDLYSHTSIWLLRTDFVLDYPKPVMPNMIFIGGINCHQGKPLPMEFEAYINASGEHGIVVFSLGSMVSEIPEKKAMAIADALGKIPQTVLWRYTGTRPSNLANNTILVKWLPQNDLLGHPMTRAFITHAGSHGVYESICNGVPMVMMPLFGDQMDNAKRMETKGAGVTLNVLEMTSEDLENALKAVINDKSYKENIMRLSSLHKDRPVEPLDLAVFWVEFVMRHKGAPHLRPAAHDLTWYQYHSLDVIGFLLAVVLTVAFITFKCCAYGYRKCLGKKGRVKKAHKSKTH

UGT2B15 = target: T2, UGT2B15 (Homo sapiens, UniProt P54855); test: Screening: inhibition of oxazepam glucuronidation in rUGT2B15 microsomes; type: in vitro ADME; details: 10 or 100 µM
T2 sequence (P54855 24-530): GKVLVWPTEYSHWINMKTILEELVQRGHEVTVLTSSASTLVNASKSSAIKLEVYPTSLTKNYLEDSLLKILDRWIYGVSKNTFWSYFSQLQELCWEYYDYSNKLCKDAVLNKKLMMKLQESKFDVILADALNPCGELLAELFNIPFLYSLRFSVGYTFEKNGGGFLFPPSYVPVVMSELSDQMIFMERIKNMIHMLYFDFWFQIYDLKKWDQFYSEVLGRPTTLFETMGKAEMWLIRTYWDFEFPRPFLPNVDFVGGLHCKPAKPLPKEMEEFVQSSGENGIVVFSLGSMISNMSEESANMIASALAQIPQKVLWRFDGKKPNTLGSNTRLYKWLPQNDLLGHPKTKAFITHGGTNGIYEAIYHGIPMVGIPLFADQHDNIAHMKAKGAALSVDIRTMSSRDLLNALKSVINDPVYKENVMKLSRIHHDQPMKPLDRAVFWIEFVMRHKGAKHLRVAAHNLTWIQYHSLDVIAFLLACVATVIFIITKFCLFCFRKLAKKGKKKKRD

UGT1A6 = target: T3, UGT1A6 (Homo sapiens, UniProt P19224); test: Inhibition of serotonin glucuronidation in rUGT1A6 microsomes; type: in vitro ADME; details: for inhibition vs control without cannabinoid: serotonin
T3 sequence (P19224 27-532): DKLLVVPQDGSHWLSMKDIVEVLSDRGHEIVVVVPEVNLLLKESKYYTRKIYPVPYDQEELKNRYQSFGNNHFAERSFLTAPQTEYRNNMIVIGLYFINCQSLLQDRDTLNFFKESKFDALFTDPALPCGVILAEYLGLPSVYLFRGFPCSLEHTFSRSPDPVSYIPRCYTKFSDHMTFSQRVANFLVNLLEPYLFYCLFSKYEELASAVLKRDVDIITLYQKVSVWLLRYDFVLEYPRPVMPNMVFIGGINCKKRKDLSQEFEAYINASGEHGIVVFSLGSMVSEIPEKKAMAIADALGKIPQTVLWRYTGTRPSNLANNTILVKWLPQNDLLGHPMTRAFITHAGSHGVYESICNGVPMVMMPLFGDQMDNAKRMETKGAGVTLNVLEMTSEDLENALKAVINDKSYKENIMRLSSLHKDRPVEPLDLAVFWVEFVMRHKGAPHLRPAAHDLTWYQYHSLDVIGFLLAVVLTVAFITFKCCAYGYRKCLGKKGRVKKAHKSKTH

UGT1A4 = target: T4, UGT1A4 (Homo sapiens, UniProt P22310); test: Screening: inhibition of trifluoperazine glucuronidation in rUGT1A4 microsomes; type: in vitro ADME; details: 10 or 100 µM
T4 sequence (P22310 29-534): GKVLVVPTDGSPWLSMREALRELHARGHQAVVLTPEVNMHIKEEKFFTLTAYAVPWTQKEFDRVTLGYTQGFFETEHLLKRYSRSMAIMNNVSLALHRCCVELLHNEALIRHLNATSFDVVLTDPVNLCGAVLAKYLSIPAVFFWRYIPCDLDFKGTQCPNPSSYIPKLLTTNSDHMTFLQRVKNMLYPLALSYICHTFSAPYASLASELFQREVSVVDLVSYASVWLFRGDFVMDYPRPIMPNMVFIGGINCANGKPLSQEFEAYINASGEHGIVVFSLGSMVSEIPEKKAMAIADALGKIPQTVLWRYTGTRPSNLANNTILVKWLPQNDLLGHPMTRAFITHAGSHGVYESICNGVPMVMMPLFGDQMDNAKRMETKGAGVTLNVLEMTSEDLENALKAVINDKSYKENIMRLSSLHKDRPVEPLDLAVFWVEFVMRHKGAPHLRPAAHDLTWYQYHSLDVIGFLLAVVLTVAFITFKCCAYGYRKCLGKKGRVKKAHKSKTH

UGT2B7 = target: T5, UGT2B7 (Homo sapiens, UniProt P16662); type: in vitro ADME; details: rUGT2B7 microsomes
T5 sequence (P16662 24-529): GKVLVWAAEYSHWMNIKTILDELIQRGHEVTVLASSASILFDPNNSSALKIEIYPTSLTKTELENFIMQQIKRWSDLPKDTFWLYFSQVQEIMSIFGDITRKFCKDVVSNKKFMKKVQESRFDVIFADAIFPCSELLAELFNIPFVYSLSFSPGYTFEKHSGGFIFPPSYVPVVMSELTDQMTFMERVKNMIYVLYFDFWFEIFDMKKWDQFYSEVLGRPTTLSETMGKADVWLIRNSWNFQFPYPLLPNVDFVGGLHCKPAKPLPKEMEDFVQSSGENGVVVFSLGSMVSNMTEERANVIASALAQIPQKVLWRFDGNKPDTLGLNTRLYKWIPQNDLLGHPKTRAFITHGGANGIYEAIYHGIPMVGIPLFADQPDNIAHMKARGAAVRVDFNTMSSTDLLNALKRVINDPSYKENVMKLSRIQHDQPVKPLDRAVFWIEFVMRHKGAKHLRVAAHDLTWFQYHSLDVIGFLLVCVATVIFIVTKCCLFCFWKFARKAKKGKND

UGT1A9 = target: T6, UGT1A9 (Homo sapiens, UniProt O60656); test: in vitro; details: both, HLM
T6 sequence (O60656 26-530): T1 sequence (O60656 26-530)

[2] = target: T7, UGT1A9 in human liver microsomes (Homo sapiens, UniProt O60656); test: biochemical; details: HLM
T7 sequence (O60656 26-530): T1 sequence (O60656 26-530)

[3] = IC50, probe substrate furosemide
[4] = IC50,u (binding-corrected IC50), probe substrate furosemide
[5] = IC50, probe substrate acetaminophen
[6] = IC50,u (binding-corrected IC50), probe substrate acetaminophen
[7] = IC50,u (binding-corrected IC50), probe substrate propofol

Row | SMILES | IC50 [1, 3] [µM] | IC50 [1, 4] [µM] | inhibition in screening (in words) (UGT2B15) | inhibition vs control without cannabinoid (UGT1A6; 10 µM, screening) [%] | inhibition vs control without cannabinoid (UGT1A6; 100 µM, screening in duplicate) [%] | IC50 (UGT1A6; IC50,u (binding-corrected IC50), probe substrate serotonin) [µM] | inhibition in screening (in words) (UGT1A4) | inhibition vs control without cannabinoid (UGT2B7; 10 µM, zidovudine, screening) [%] | IC50 (UGT1A9; [5]) [µM] | IC50 (UGT1A9; [6]) [µM] | IC50 ([2]; IC50, probe substrate propofol) [µM] | IC50 [2, 7] [µM] | inhibition in screening (in words) (UGT2B7; 10 or 100 µM)
1 | C=C(C)[C@@H]1CCC(C)=C[C@H]1c1c(O)cc(CCCCC)cc1O [CBD, cannabidiol] | 3.6 ± 0.8 | 0.22 ± 0.049 | no significant inhibition | 25 | 54 | 0.4 ± 0.1 | no significant inhibition | 58 | 12 ± 3.2 | 0.64 ± 0.16 | 19 ± 4.6 | 1 ± 0.24 | –
2 | CCCCCc1cc(O)c2c(c1)OC(C)(C)c1ccc(C)cc1-2 [CBN, cannabinol] | 15 ± 0.77 | 1.9 ± 0.092 | no significant inhibition | – | 43 | – | no significant inhibition | – | 34 ± 6.3 | 3.1 ± 0.58 | 31 ± 4.1 | 2.9 ± 0.38 | significant inhibition
